Assay [1] concerns P. aeruginosa MSC01035. As to the kind of experiment: MIC, agar plate dilution method, P. aeruginosa MSC01035. It is filed as cell-based, Pseudomonas aeruginosa. Particulars: Pseudomonas aeruginosa, P. aeruginosa MSC01035, ABK-resistant, read-out: minimal inhibitory concentration (MIC). In short, it runs like this: (§1)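 Read-out is the lowest compound concentration inhibiting growth (MIC, μg/mL), obtained by the agar plate dilution procedure of the Japan Society of Chemotherapy.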

Assay [2] relates to S. aureus RN4220. As to the kind of experiment: MIC, agar plate dilution method, S. aureus RN4220. It is filed as cell-based, Staphylococcus aureus. The note with it: Staphylococcus aureus, RN4220, S. aureus RN4220, Sensitive bacterium, read-out: minimal inhibitory concentration (MIC). In a few lines: as §1
The test system of assay [3] is S. marcescens TH-0447. The experiment in a line: MIC, agar plate dilution method, S. marcescens TH-0447. The note with it: Serratia marcescens, TH0447, S. marcescens TH-0447, AMK-resistant, read-out: minimal inhibitory concentration (MIC). In kind it is cell-based, Serratia marcescens. In short, it runs like this:
as §1

The test system of assay [4] is P. aeruginosa MSC17707. As to the kind of experiment: MIC, agar plate dilution method, P. aeruginosa MSC17707. Particulars: Pseudomonas aeruginosa, MSC17707, P. aeruginosa MSC17707, AMK-resistant, read-out: minimal inhibitory concentration (MIC). It is filed as cell-based, Pseudomonas aeruginosa. In a few lines:
as §1

The subject of assay [5] is S. aureus RN4220/pMS520. The experiment in a line: MIC, agar plate dilution method, S. aureus RN4220/pMS520. In kind it is cell-based, Staphylococcus aureus. The note with it: Staphylococcus aureus, MRSA, read-out: minimal inhibitory concentration (MIC), S. aureus RN4220/pMS520, MRSA. In a few lines:
as §1

The test system of assay [6] is S. aureus MF490. As to the kind of experiment: MIC, agar plate dilution method, S. aureus MF490. It is filed as cell-based, Staphylococcus aureus. The note with it: Staphylococcus aureus, MRSA, read-out: minimal inhibitory concentration (MIC). In a few lines: as §1
The test system of assay [7] is E. faecium ATCC19434. As to the kind of experiment: MIC, agar plate dilution method, E. faecium ATCC19434. The note with it: Enterococcus faecium, ATCC19434, E. faecium ATCC19434, read-out: minimal inhibitory concentration (MIC). It is filed as cell-based, Enterococcus faecium. In a few lines: as §1
Assay [8] has as its system P. aeruginosa PAO1/GN315. As to the kind of experiment: MIC, agar plate dilution method, P. aeruginosa PAO1/GN315. It is filed as cell-based, Pseudomonas aeruginosa. Particulars: Pseudomonas aeruginosa, read-out: minimal inhibitory concentration (MIC), P. aeruginosa PAO1/GN315, AMK-resistant. In short, it runs like this:
as §1

Assay [9] concerns P. aeruginosa PAO1. The experiment in a line: MIC, agar plate dilution method, P. aeruginosa PAO1. Particulars: Pseudomonas aeruginosa, PAO1, P. aeruginosa PAO1, Sensitive bacterium, read-out: minimal inhibitory concentration (MIC). It is filed as cell-based, Pseudomonas aeruginosa. In short, it runs like this:
as §1

In assay [10] the test system is S. marcescens GN6944. As to the kind of experiment: MIC, agar plate dilution method, S. marcescens GN6944. The note with it: Serratia marcescens, S. marcescens GN6944, GM-resistant, read-out: minimal inhibitory concentration (MIC). In kind it is cell-based, Serratia marcescens. In a few lines:
as §1

Assay [11] concerns K. pneumoniae ATCC BAA-2146. As to the kind of experiment: MIC, agar plate dilution method, K. pneumoniae ATCC BAA-2146. It is filed as cell-based, Klebsiella pneumoniae. The note with it: Klebsiella pneumoniae, ATCCBAA2146, K. pneumoniae ATCC BAA-2146, NDM-producing strain, read-out: minimal inhibitory concentration (MIC). In short, it runs like this:
as §1

Assay [12] relates to E. coli JM109/pMW218. As to the kind of experiment: MIC, agar plate dilution method, E. coli JM109/pMW218. The note with it: Escherichia coli, JM109/PMW218, E. coli JM109/pMW218, Sensitive bacterium, read-out: minimal inhibitory concentration (MIC). In kind it is cell-based, Escherichia coli. In a few lines:
as §1

Assay [13] deals with K. pneumoniae ATCC BAA-1705. As to the kind of experiment: MIC, agar plate dilution method, K. pneumoniae ATCC BAA-1705. In kind it is cell-based, Klebsiella pneumoniae. Particulars: Klebsiella pneumoniae, ATCCBAA1705, K. pneumoniae ATCC BAA-1705, KPC-producing strain, read-out: minimal inhibitory concentration (MIC). In short, it runs like this:
as §1

Assay [14] has as its system A. baumannii ATCC BAA-1710. As to the kind of experiment: MIC, agar plate dilution method, A. baumannii ATCC BAA-1710. It is filed as cell-based, Acinetobacter baumannii. Particulars: Acinetobacter baumannii, ATCCBAA1710, A. baumannii ATCC BAA-1710, MDRA, read-out: minimal inhibitory concentration (MIC). In a few lines: as §1

Converted amounts (≈) assume the structure as drawn.

With `CNC1C(O[C@H]2OC(CO)[C@@H](NC(=O)CCN)[C@H](O)C2O)O[C@H]2C[C@H](N)[C@@H](O[C@@H]3C(N)C[C@@H](N)C(O)[C@H]3O)OC2C1O` (stereo partly drawn) [Compound V1-m, 4″-N-(β-alanyl)-5-epiapramycin], the MIC in assay [1] came out at 4 µg/mL (≈ 6.55 µM); in [2], 2 µg/mL (≈ 3.28 µM); in assay [3] it was 8 µg/mL (≈ 13.1 µM); in assay [4], 2 µg/mL (≈ 3.28 µM); in [5], 2 µg/mL (≈ 3.28 µM); in [6], 8 µg/mL (≈ 13.1 µM). Moreover, the MIC in assay [7] was 16 µg/mL (≈ 26.2 µM); in assay [8], 4 µg/mL (≈ 6.55 µM); in assay [9], 2 µg/mL (≈ 3.28 µM); in assay [10] it was 8 µg/mL (≈ 13.1 µM); in [11], 1 µg/mL (≈ 1.64 µM); in assay [12], 1 µg/mL (≈ 1.64 µM). Besides, the results for the MIC in assay [13] and in assay [14] were 1 µg/mL (≈ 1.64 µM) and 8 µg/mL (≈ 13.1 µM), respectively.
For the compound `CNC1C(O[C@H]2OC(CO)[C@@H](NC(=O)[C@@H](O)CN)[C@H](O)C2O)O[C@H]2C[C@H](N)[C@@H](O[C@@H]3C(N)C[C@@H](N)C(O)[C@H]3O)OC2C1O` (stereo partly drawn) [Compound V1-n, 5-epi-4″-N-(L-isoseryl)apramycin], the MIC in assay [1] was 4 µg/mL (≈ 6.38 µM); in [2] it was 2 µg/mL (≈ 3.19 µM); in [3] it was 8 µg/mL (≈ 12.8 µM); in assay [4], 2 µg/mL (≈ 3.19 µM); in [5], 2 µg/mL (≈ 3.19 µM); in assay [6], 8 µg/mL (≈ 12.8 µM). Moreover, the MIC stood at 16 µg/mL (≈ 25.5 µM) in [7]; 4 µg/mL (≈ 6.38 µM) in assay [8]; 2 µg/mL (≈ 3.19 µM) in assay [9]; 8 µg/mL (≈ 12.8 µM) in assay [10]; 1 µg/mL (≈ 1.6 µM) in assay [11]; 0.5 µg/mL (≈ 0.798 µM) in assay [12]. Further, the MIC in assay [13] was determined as 1 µg/mL (≈ 1.6 µM); in assay [14], 8 µg/mL (≈ 12.8 µM).
On to `CNC1C(O[C@H]2OC(CO)[C@@H](NC(=O)CN)[C@H](O)C2O)O[C@H]2C[C@H](N)[C@@H](O[C@@H]3C(N)C[C@@H](N)C[C@H]3O)OC2C1O` (stereo partly drawn) [Compound V1-o, 6-deoxy-5-epi-4″-N-glycylapramycin], for which the MIC turned out to be 4 µg/mL (≈ 6.89 µM) in assay [1]; 1 µg/mL (≈ 1.72 µM) in assay [2]; 8 µg/mL (≈ 13.8 µM) in [3]; 2 µg/mL (≈ 3.44 µM) in assay [4]; 1 µg/mL (≈ 1.72 µM) in [5]; 4 µg/mL (≈ 6.89 µM) in assay [6]. Besides, the MIC in assay [7] was found to be 8 µg/mL (≈ 13.8 µM); in assay [8] it was 2 µg/mL (≈ 3.44 µM); in assay [9] it was 2 µg/mL (≈ 3.44 µM); in assay [10], 4 µg/mL (≈ 6.89 µM); in [11] it was 1 µg/mL (≈ 1.72 µM); in [12] it was 0.5 µg/mL (≈ 0.861 µM). The MIC in assay [13] came out at 1 µg/mL (≈ 1.72 µM); in assay [14], 4 µg/mL (≈ 6.89 µM).
Consider `CNCC(=O)N[C@@H]1C(CO)O[C@H](OC2O[C@H]3C[C@H](N)[C@@H](O[C@@H]4C(N)C[C@@H](N)C[C@H]4O)OC3C(O)C2NC)C(O)[C@H]1O` (stereo partly drawn) [Compound V1-p, 6-deoxy-5-epi-4″-N-sarcosylapramycin], for which the MIC in assay [1] was determined as 4 µg/mL (≈ 6.73 µM); in [2] it was 1 µg/mL (≈ 1.68 µM); in assay [3] it was 8 µg/mL (≈ 13.5 µM); in assay [4], 2 µg/mL (≈ 3.36 µM); in assay [5] it was 1 µg/mL (≈ 1.68 µM); in assay [6], 4 µg/mL (≈ 6.73 µM). Besides, the MIC is 8 µg/mL (≈ 13.5 µM) in assay [7]; 4 µg/mL (≈ 6.73 µM) in assay [8]; 2 µg/mL (≈ 3.36 µM) in assay [9]; 4 µg/mL (≈ 6.73 µM) in [10]; 1 µg/mL (≈ 1.68 µM) in [11]; 1 µg/mL (≈ 1.68 µM) in assay [12]. Besides, the MIC was found to be 1 µg/mL (≈ 1.68 µM) in assay [13] and 4 µg/mL (≈ 6.73 µM) in assay [14].

Source of the values: US11135234B2, “Effective aminoglycoside antibiotic for multidrug-resistant bacteria” (MICROBIAL CHEMISTRY RESEARCH FOUNDATION, priority 2015, dated 2021).
